Measurements published in the OPERA property sets (Mansouri et al. 2018).

Row | SMILES | boiling point [°C] | melting point [°C] | log10 vapour pressure (mmHg) | log10 Koa | log10 Koc (L/kg) | log10 Henry constant (atm·m³/mol) | ready biodegradability
1 | Brc1ccccc1I | 257 | 9.5 | – | – | – | – | –
2 | C=CC=C(C)C | 76.5 | – | – | – | – | – | –
3 | CC(C)C1CCCC1 | 126 | -111 | 1.21 | – | – | – | –
4 | Oc1ccc2cc(O)ccc2c1 | – | 220 | – | – | – | – | –
5 | CC(Cl)CBr (centres undefined) | 118 | – | – | – | – | – | –
6 | Clc1c(Cl)c(Cl)c2c(Cl)c(Cl)c(Cl)c(Cl)c2c1Cl | – | 198 | -7.96 | 11.1 | 5.89 | – | –
7 | CCCC(C)C(=O)O (centres undefined) | 196 | – | – | – | – | – | –
8 | CCCCCCCCOC(=O)CCCCC(=O)OCCCCCCCC | – | -70 | -6.07 | – | – | -6.36 | –
9 | COCC(O)CO (centres undefined) | 220 | – | – | – | – | – | –
10 | NC(=O)C=Cc1ccccc1 | – | 149 | – | – | – | – | –
11 | S=C(S)N1CCNCC1 | – | 228 | – | – | – | – | –
12 | COP(=O)(NC(C)=O)SC (centres undefined) | – | 88 | -5.77 | – | 0.3 | – | readily biodegradable
13 | c1ccc(-c2c3ccccc3nc3ccccc23)cc1 | 404 | 184 | – | – | – | – | –
14 | Cc1ccc2ccc(C)nc2c1 | 264 | 61 | – | – | – | – | –
15 | Cc1ccc(Br)cc1Br | – | -9.7 | – | – | – | – | –
16 | Ic1ccc(-c2ccccc2)cc1 | 320 | 114 | – | – | – | – | –
17 | C1=Cc2cc3ccc(cc4nc(cc5ccc(cc1n2)[nH]5)C=C4)[nH]3 | – | 360 | – | – | – | – | –
18 | CCC(CC)OC(C)=O | 133 | – | – | – | – | – | –
19 | Cc1cccc(NC(=O)c2ccccc2)c1 | – | 125 | – | – | – | – | –
20 | CC(C)C(C)N (centres undefined) | 85.5 | -50 | – | – | – | – | –
21 | C[C@@]12CCC[C@H]1[C@@H]1CC[C@H]3CCCC[C@]3(C)[C@H]1CC2 | – | 64.6 | – | – | – | – | –
22 | O=[N+]([O-])/N=C1\NCCN1Cc1ccc(Cl)nc1 | – | 144 | – | – | – | – | –

Row | SMILES | boiling point [°C] | melting point [°C] | log10 vapour pressure (mmHg) | log10 Koa | log10 Koc (L/kg) | log10 Henry constant (atm·m³/mol) | ready biodegradability
23 | O=S=Nc1ccccc1 | 200 | – | – | – | – | – | –
24 | Cc1cccc(OP(=O)(Oc2cccc(C)c2)Oc2cccc(C)c2)c1 | – | 25.5 | – | – | – | -4.08 | readily biodegradable
25 | O=[N+]([O-])c1cc(Cl)c(O)c(Cl)c1 | – | 127 | – | – | – | – | –
26 | C/C=C/C=C/C | 80 | -79 | – | – | – | – | –
27 | CCCC(=O)OCC(C)C | 157 | – | – | – | – | – | –
28 | O=[N+]([O-])c1ccc(F)cc1F | 207 | 9.8 | – | – | – | – | –
29 | O=C(C=Cc1ccco1)C=Cc1ccco1 | – | 60.5 | – | – | – | – | –
30 | CC(C)OB(OC(C)C)OC(C)C | 140 | – | 0.875 | – | – | – | –
31 | CCNS(=O)(=O)C(F)(F)C(F)(F)C(F)(F)C(F)(F)C(F)(F)C(F)(F)C(F)(F)C(F)(F)F | 196 | 96 | -6.37 | – | – | – | –
32 | CCCC(=O)NN | – | 45.5 | – | – | – | – | –
33 | CC(=O)c1cccc(C(C)=O)c1 | – | 32 | – | – | – | – | –
34 | CC(C)C(C(C)C)C(C)C | 157 | -81.7 | – | – | – | – | –
35 | c1ccc2sc(SSN3CCOCC3)nc2c1 | – | 135 | – | – | – | – | –
36 | c1ccc2sc(SN(C3CCCCC3)C3CCCCC3)nc2c1 | – | 99.8 | – | – | – | – | not readily biodegradable
37 | CN(C)c1cccc(O)c1 | 266 | 86 | – | – | – | – | –
38 | CCN(CC)CCCO | 190 | – | – | – | – | – | –
39 | O=[N+]([O-])c1ccc2[nH]ccc2c1 | – | 141 | – | – | – | – | –
40 | CCC(Cl)CCl (centres undefined) | 124 | – | 1.32 | – | – | – | –
41 | O=C(O)CCCCC1CCSS1 (centres undefined) | – | 60.5 | – | – | – | – | –
42 | C=C(F)F | -85.7 | -144 | 4.48 | – | – | – | –
43 | Oc1c(F)c(F)c(F)c(F)c1F | 146 | 32.8 | 0.464 | – | – | – | –
44 | O=[N+]([O-])c1cc(Cl)c(Cl)cc1Cl | 288 | 57.5 | – | – | – | – | –

Row | SMILES | boiling point [°C] | melting point [°C] | log10 vapour pressure (mmHg) | log10 Koa | log10 Koc (L/kg) | log10 Henry constant (atm·m³/mol) | ready biodegradability
45 | O=C(O)C1c2ccccc2-c2ccccc21 | – | 230 | – | – | – | – | –
46 | Cc1ccc(S(=O)(=O)NC(=O)NN2CCCCCC2)cc1 | – | 172 | – | – | – | – | –
47 | COS(=O)OC | 126 | – | – | – | – | – | –
48 | CC(C(=O)O)c1ccc(N2CC=CC2)c(Cl)c1 (centres undefined) | – | 99 | – | – | – | – | –
49 | SCCCS | 173 | -79 | – | – | – | – | –
50 | CC(=O)CC(=O)Nc1ccccc1Cl | – | 105 | – | – | – | – | –
51 | CCCNC(=O)COC(=O)c1ccccc1 | – | 89.5 | – | – | – | – | –
52 | CCCCCCNC(=O)c1ccc(O)c(O)c1 | – | 140 | – | – | – | – | –
53 | Cc1cccc(-c2ccccc2C)c1 | 270 | – | – | – | – | – | –
54 | CC1=CC=C(C(C)C)CC1 | 175 | – | – | – | – | – | –
55 | CCS(=O)(=O)c1ccccc1 | – | 42 | – | – | – | – | –
56 | CCNC1CCCCC1 | 164 | – | – | – | – | – | –
57 | CC(C)NCC(O)c1ccc(NS(C)(=O)=O)cc1 (centres undefined) | – | 207 | – | – | – | – | –
58 | Oc1ccc2c(c1)[nH]c1ccccc12 | – | 272 | – | – | – | – | –
59 | CCCCC1CCC(O)C(OC)C1 (centres undefined) | – | – | – | – | – | – | readily biodegradable
60 | O=[N+]([O-])c1c(Cl)c(Cl)c(Cl)c(Cl)c1Cl | 328 | 144 | -4.3 | – | 3.98 | – | not readily biodegradable
61 | CC(C)=C1CCCC(C)C1 (centres undefined) | 174 | – | – | – | – | – | –
62 | CO[Si](C)(C)OC | 82 | – | – | – | – | – | –
63 | CCC(C)(S(=O)(=O)CC)S(=O)(=O)CC | – | 76 | – | – | – | – | –
64 | COC(OC)(OC)OC | 114 | -5 | – | – | – | – | –
65 | CCCCCS | 127 | -75.7 | 1.14 | – | – | – | –
